Test results published in PubChem BioAssay (NCI).
Several values for one entry are separate records, joined by “and”; a condition that tells them apart may be missing. Equal entries are not always repeated.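 Step 1: Grow cells in 96-well plates. Step 2: Expose to compound for 48 hours at 5 concentrations. Step 3: Interpolate endpoints linearly; if unreached, use highest concentration. Here, GI50 denotes the concentration required for 50% inhibition of growth. Definition used: TGI = concentration required for complete inhibition of growth.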

Legend:
Experiment in all cases: NCI anticancer screen, dose series, 48 h
IGROV1 ovarian = test system: IGROV1 ovarian
MDA-MB-231 breast = test system: MDA-MB-231 breast
RPMI-8226 leukemia = test system: RPMI-8226 leukemia
MCF7 breast = test system: MCF7 breast
SR leukemia = test system: SR leukemia
BT-549 breast = test system: BT-549 breast
786-0 renal = test system: 786-0 renal
CCRF-CEM leukemia = test system: CCRF-CEM leukemia
SN12C renal = test system: SN12C renal
RXF 393 renal = test system: RXF 393 renal
CAKI-1 renal = test system: CAKI-1 renal
HOP-62 NSCLC = test system: HOP-62 NSCLC
EKVX NSCLC = test system: EKVX NSCLC
SF-268 CNS = test system: SF-268 CNS
MALME-3M melanoma = test system: MALME-3M melanoma
HCC-2998 colon = test system: HCC-2998 colon
SNB-75 CNS = test system: SNB-75 CNS
NCI-H522 lung = test system: NCI-H522 lung
OVCAR-5 ovarian = test system: OVCAR-5 ovarian

Row | Structure (SMILES) | TGI (IGROV1 ovarian) | TGI (MDA-MB-231 breast) | TGI (RPMI-8226 leukemia) | TGI (MCF7 breast) | TGI (SR leukemia) | TGI (BT-549 breast) | TGI (786-0 renal) | TGI (CCRF-CEM leukemia) | TGI (SN12C renal) | TGI (RXF 393 renal) | TGI (CAKI-1 renal) | TGI (HOP-62 NSCLC) | TGI (EKVX NSCLC) | TGI (SF-268 CNS) | TGI (MALME-3M melanoma) | TGI (HCC-2998 colon) | TGI (SNB-75 CNS) | TGI (NCI-H522 lung) | TGI (OVCAR-5 ovarian) | GI50 (CCRF-CEM leukemia)
1 | CCOC(=O)c1ccc(N=c2oc3ccc(OC)cc3cc2-c2nc3ccccc3[nH]2)cc1 | > 100 µM | > 100 µM | > 100 µM | > 100 µM | > 100 µM | > 100 µM | > 100 µM | > 100 µM | > 100 µM | > 100 µM | > 100 µM | > 100 µM | > 100 µM | > 100 µM | > 100 µM | > 100 µM | 65.2 µM | > 100 µM | > 100 µM | –
2 | COc1cccc(Nc2nc(N)nc(N)c2N=O)c1 | 94 µM | > 100 µM | 60.6 µM | > 100 µM | 45.5 µM | 96.8 µM | 70.2 µM | 93.4 µM | > 100 µM | > 100 µM | 55.4 µM | > 100 µM | > 100 µM | > 100 µM | > 100 µM | 34.4 µM | 91.1 µM | 29.5 µM | > 100 µM | –
3 | CN(C)CCCN1c2ccccc2CCc2cc([N+](=O)[O-])ccc21 | 53.2 µM and 29.8 µM | 52.7 µM and 30.2 µM | 52.6 µM and 41.2 µM | 79 µM and 31.8 µM | 90.6 µM and 44 µM | 45 µM and 31.3 µM | 66 µM and 28.9 µM | > 100 µM and 27 µM | 60.9 µM and 30.4 µM | 32.8 µM and 26 µM | 59.7 µM and 32.2 µM | 48.6 µM and 30 µM | > 100 µM and 37.4 µM | 52.5 µM and 28.8 µM | 33.8 µM and 32.9 µM | 34.1 µM and 25.2 µM | 26.4 µM | 60.6 µM and 31 µM | 63.9 µM and 31.8 µM | 43.8 µM and 10.7 µM
4 | COc1ccc(C(SCC(N)C(=O)O)(c2ccc(OC)cc2)c2ccc(OC)cc2)cc1 (stereo not drawn) | 20.2 µM | 19.6 µM | > 31.6 µM | 16.5 µM | > 31.6 µM | 28 µM | 20.3 µM | > 31.6 µM | 17.7 µM | 15.6 µM | > 31.6 µM | 17.8 µM | 21.9 µM | 19.9 µM | 16 µM | 17.4 µM | 19.4 µM | 39.8 µM | 20.7 µM | –
5 | COCN1C(=O)[C@@H]2CCCN2C(=O)c2ccc([N+](=O)[O-])cc21 | > 100 µM | > 100 µM | > 100 µM | > 100 µM | > 100 µM | > 100 µM | > 100 µM | > 100 µM | > 100 µM | > 100 µM | > 100 µM | > 100 µM | > 100 µM | > 100 µM | – | > 100 µM | > 100 µM | > 100 µM | > 100 µM | –
6 | O=C(c1ccccc1)C1C[C@H]2CO[C@H](c3ccccc3)N2C1=O (stereo partly drawn) | > 100 µM | > 100 µM | > 100 µM | > 100 µM | > 100 µM | > 100 µM | > 100 µM | > 100 µM | > 100 µM | > 100 µM | > 100 µM | – | > 100 µM | > 100 µM | > 100 µM | > 100 µM | > 100 µM | > 100 µM | > 100 µM | –
